IC50 data for 24 molecules are collected here from patent publication US11827628B2, “Compositions and methods for inhibition of the JAK pathway” (Rigel Pharmaceuticals, Inc., priority 2005, dated 2023).

Assay [1] has as its system up-regulation of ICAM-1 (CD54) by IFNγ in U937 human monocytic cells. Nature of the assay: U937 IFNγ ICAM1 FACS Assay. It counts as cell-based. The note with it: U937 cells stimulated with IFNγ; ICAM-1 expression by FACS; read-out: IC50, Example 44. In a few lines:
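U937 cells in 10% FCS RPMI were preincubated 30 min at 37 °C with an 8-point, 3-fold compound dilution series in duplicate, then stimulated with IFNγ for 18–24 h. Surface ICAM-1 was stained with APC anti-ICAM-1 and read by flow cytometry as geometric mean on live-gated cells. EC50 was derived.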
In general terms: Flow cytometry measures light scatter and fluorescence of single cells or particles in a stream.

Assay [2] has as its system IL-4 stimulated expression of CD23 in human Ramos B cells (JAK-1 and JAK-3). Put plainly: Assay for Ramos B-Cell Line Stimulated with IL-4 (CD23 upregulation, FACS). The note with it: Ramos B-cell line stimulated with IL-4; CD23 expression by FACS; read-out: IC50, Example 41. The class given is cell-based. An outline of the steps:
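Read-out is surface CD23 by FACS after anti-CD23-PE staining, giving IC50. Before this, cells were stimulated 20-24 h with 50 units/mL (final) human IL-4, following 1 h compound or vehicle pre-treatment at 37 °C; log-phase Ramos B cells, 5×10^4 per well in 5% serum RPMI.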

As usually defined, the IC50 is the point on the concentration scale where inhibition reaches its midpoint. As for `Cc1cc(COc2ccc(Nc3nc(Nc4ccc(C)c(S(N)(=O)=O)c4)ncc3F)cc2Cl)no1` [Compound I-221, N2-(3-Aminosulfonyl-4-methylphenyl)-N4-[3-chloro-4-(5-methylisoxazol-3-yl)methyleneoxyphenyl]-5-fluoro-2,4-pyrimidinediamine], the half-inhibitory concentration (IC50) in assay [1] stood at 4.44 µM; in assay [2], 0.344 µM.

Regarding `Cc1cc(COc2ccc(Nc3nc(Nc4ccc(C)c(S(N)(=O)=O)c4)ncc3F)cc2F)no1` [Compound I-222, N2-(3-Aminosulfonyl-4-methylphenyl)-5-fluoro-N4-[3-fluoro-4-(5-methylisoxazol-3-yl)methyleneoxyphenyl]-2,4-pyrimidinediamine], the IC50 in assay [1] was 0.84 µM; in assay [2] it was 0.0331 µM.

`Cc1cc(COc2ccc(Nc3nc(Nc4cc(Cl)c(C)c(S(N)(=O)=O)c4)ncc3F)cc2F)no1` [Compound I-223, N2-(3-Aminosulfonyl-5-chloro-4-methylphenyl)-5-fluoro-N4-[3-fluoro-4-(5-methylisoxazol-3-yl)methyleneoxyphenyl]-2,4-pyrimidinediamine]: the IC50 in assay [1] turned out to be 1.21 µM; in assay [2], 0.088 µM.

For `Cc1cc(COc2ccc(Nc3nc(Nc4cc(C)c(F)c(S(N)(=O)=O)c4)ncc3F)cc2F)no1` [Compound I-224, N2-(3-Aminosulfonyl-4-fluoro-5-methylphenyl)-5-fluoro-N4-[3-fluoro-4-(5-methylisoxazol-3-yl)methyleneoxyphenyl]-2,4-pyrimidinediamine], the IC50 came out at 0.494 µM in assay [1] and 0.0362 µM in assay [2].

Turning to `Cc1noc(COc2ccc(Nc3nc(Nc4ccc(S(N)(=O)=O)cc4)ncc3F)cc2)n1` [Compound I-231, N2-(4-Aminosulfonylphenyl)-5-fluoro-N4-[4-(3-methyl-1,2,4-oxadiazol-5-yl)methyleneoxyphenyl]-2,4-pyrimidinediamine], the concentration for half-maximal inhibition (IC50) worked out at 8.4 µM in assay [1] and 0.0947 µM in assay [2].

Take `Cc1cc(COc2ccc(Nc3nc(Nc4ccc(F)c(S(N)(=O)=O)c4)ncc3F)cc2)no1` [Compound I-233, N2-(3-Aminosulfonyl-4-fluorophenyl)-5-fluoro-N4-[4-(5-methylisoxazol-3-yl)methyleneoxyphenyl]-2,4-pyrimidinediamine]: the values for the IC50 in assay [1] and in assay [2] were 1.75 µM and 0.148 µM, respectively.

Consider `Cc1cc(COc2ccc(Nc3nc(Nc4ccc(C)c(S(N)(=O)=O)c4)ncc3F)cc2C)no1` [Compound I-234, N2-(3-Aminosulfonyl-4-methylphenyl)-5-fluoro-N4-[3-methyl-4-(5-methylisoxazol-3-yl)methyleneoxyphenyl]-2,4-pyrimidinediamine], for which the half-maximal inhibitory concentration (IC50) in assay [1] was found to be 2.02 µM; in assay [2], 0.102 µM.

On to `CNS(=O)(=O)c1cc(Nc2ncc(F)c(Nc3ccc(OCc4cc(C)on4)cc3)n2)ccc1C` [Compound I-235, 5-Fluoro-N2-[3-(N-methyl)aminosulfonyl-4-methylphenyl]-N4-[4-(5-methylisoxazol-3-yl)methyleneoxyphenyl]-2,4-pyrimidinediamine], for which the half-maximal inhibitory concentration (IC50) was 2.56 µM in assay [1] and 0.178 µM in assay [2].

`Cc1cc(COc2ccc(Nc3nc(Nc4ccc(F)c(S(N)(=O)=O)c4)ncc3F)cc2C)no1` [Compound I-237, N2-(3-Aminosulfonyl-4-fluorophenyl)-5-fluoro-N4-[3methyl-4-(5-methylisoxazol-3-yl)methyleneoxyphenyl]-2,4-pyrimidinediamine]: the results for the IC50 in assay [1] and in assay [2] were 3.58 µM and 0.147 µM, respectively.

On to `Cc1cc(COc2ccc(Nc3nc(Nc4cccc(S(N)(=O)=O)c4)ncc3F)cc2C)no1` [Compound I-238, N2-(3-Aminosulfonylphenyl)-5-fluoro-N4-[3-methyl-4-(5-methylisoxazol-3-yl)methyleneoxyphenyl]-2,4-pyrimidinediamine], for which the results for the IC50 in assay [1] and in assay [2] were 1.13 µM and 0.165 µM, respectively.

For the molecule `CCN(CC)CCNS(=O)(=O)c1cccc(Nc2ncc(F)c(Nc3ccc(OCc4cc(C)on4)cc3)n2)c1` [Compound I-241, N2-[3-(2-N,N-Diethylaminoethyl)aminosulfonylphenyl)-5-fluoro-N4-[4-(5-methylisoxazol-3-yl)methyleneoxyphenyl]-2,4-pyrimidinediamine], the IC50 in assay [1] was found to be 2.87 µM; in assay [2], 0.266 µM.

For the molecule `CCN(CC)CCNS(=O)(=O)c1cccc(Nc2ncc(F)c(Nc3ccc(OCc4cc(C)on4)c(C)c3)n2)c1` [Compound I-244, N2-[3-(2-N,N-Diethylaminoethyl)aminosulfonylphenyl)-5-fluoro-N4-[3-methyl-4-(5-methylisoxazol-3-yl)methyleneoxyphenyl]-2,4-pyrimidinediamine], the IC50 amounted to 3.12 µM in assay [1] and 0.285 µM in assay [2].

In the case of `CCN(CC)CCNS(=O)(=O)c1ccc(Nc2ncc(F)c(Nc3ccc(OCc4cc(C)on4)c(C)c3)n2)cc1` [Compound I-245, N2-[4-(2-N,N-Diethylaminoethyl)aminosulfonylphenyl)-5-fluoro-N4-[3-methyl-4-(5-methylisoxazol-3-yl)methyleneoxyphenyl]-2,4-pyrimidinediamine], the IC50 in assay [1] is 4.19 µM; in assay [2], 0.202 µM.

For the molecule `CCN(CC)CCNS(=O)(=O)c1ccc(Nc2ncc(F)c(Nc3ccc(OCc4cc(C)on4)cc3)n2)cc1` [Compound I-246, N2-[4-(2-N,N-Diethylaminoethyl)aminosulfonylphenyl)-5-fluoro-N4-[4-(5-methylisoxazol-3-yl)methyleneoxyphenyl]-2,4-pyrimidinediamine], the IC50 was determined as 0.873 µM in assay [1] and 0.106 µM in assay [2].

With `Cc1cc(COc2ccc(Nc3nc(Nc4cccc(S(=O)(=O)N(Cc5oc(=O)oc5C)Cc5oc(=O)oc5C)c4)ncc3F)cc2)no1` [Compound I-248, N2-{3-[N-N-Di-[(5-Methyl-1,3-dioxolene-2-one-4-yl)methylene]]aminosulfonylphenyl}-5-fluoro-N4-[4-(5-methylisoxazol-3-yl)methyleneoxyphenyl]-2,4-pyrimidinediamine], the values for the IC50 in assay [1] and in assay [2] were 2.66 µM and 0.388 µM, respectively.

Consider `Cc1noc(COc2cccc(Nc3nc(Nc4cccc(S(N)(=O)=O)c4)ncc3F)c2)n1` [Compound I-252, N2-(3-Aminosulfonylphenyl)-5-fluoro-N4-[3-(3-methyl-1,2,4-oxadiazol-5-yl)methyleneoxyphenyl]-2,4-pyrimidinediamine], for which the figures for the concentration for half-maximal inhibition (IC50) in assay [1] and in assay [2] were 2.47 µM and 0.0906 µM, respectively.

`Cc1noc(COc2cccc(Nc3nc(Nc4ccc(C)c(S(N)(=O)=O)c4)ncc3F)c2)n1` [Compound I-254, N2-(3-Aminosulfonyl-4-methylphenyl)-5-fluoro-N4-[3-(3-methyl-1,2,4-oxadiazol-5-yl)methyleneoxyphenyl]-2,4-pyrimidinediamine]: the 50% inhibitory concentration (IC50) in assay [1] was 1.82 µM; in assay [2], 0.155 µM.

Consider `CNS(=O)(=O)c1cc(Nc2ncc(F)c(Nc3cccc(OCc4nc(C)no4)c3)n2)ccc1C` [Compound I-255, 5-Fluoro-N2-[3-(N-methylaminosulfony)-4-methylphenyl]-N4-[3-(3-methyl-1,2,4-oxadiazol-5-yl)methyleneoxyphenyl]-2,4-pyrimidinediamine], for which the IC50 in assay [1] stood at 5.52 µM; in assay [2] it was 0.256 µM.

As for `CCN(CC)CCNS(=O)(=O)c1ccc(Nc2ncc(F)c(Nc3cccc(OCc4nc(C)no4)c3)n2)cc1` [Compound I-256, N2-[4-(2-N,N-Diethylaminoethyl)aminosulfonylphenyl)-5-fluoro-N4-[3-(3-methyl-1,2,4-oxadiazol-5-yl)methyleneoxyphenyl]-2,4-pyrimidinediamine], the results for the IC50 in assay [1] and in assay [2] were 15.9 µM and 0.282 µM, respectively.

As for `Cc1noc(COc2ccc(Nc3nc(Nc4cccc(S(=O)(=O)NCc5oc(=O)oc5C)c4)ncc3F)cc2)n1` [Compound I-257, N2-{3-[(N-5-Methyl-1,3-dioxolene-2-one-4-yl)methylene]aminosulfonylphenyl}-5-fluoro-N4-[4-(3-methyl-1,2,4-oxadiazol-5-yl)methyleneoxyphenyl]-2,4-pyrimidinediamine], the figures for the half-maximal inhibitory concentration (IC50) in assay [1] and in assay [2] were 0.959 µM and 0.145 µM, respectively.

Consider `Cc1noc(COc2ccc(Nc3nc(Nc4cccc(S(N)(=O)=O)c4)ncc3F)cc2)n1` [Compound I-258, N2-(3-Aminosulfonylphenyl)-5-fluoro-N4-[4-(3-methyl-1,2,4-oxadiazol-5-yl)methyleneoxyphenyl]-2,4-pyrimidinediamine], for which the IC50 worked out at 0.324 µM in assay [1] and 0.028 µM in assay [2].

Take `Cc1noc(COc2ccc(Nc3nc(Nc4ccc(C)c(S(N)(=O)=O)c4)ncc3F)cc2)n1` [Compound I-259, N2-(3-Aminosulfonyl-4-methylphenyl)-5-fluoro-N4-[4-(3-methyl-1,2,4-oxadiazol-5-yl)methyleneoxyphenyl]-2,4-pyrimidinediamine]: the figures for the IC50 in assay [1] and in assay [2] were 0.315 µM and 0.0279 µM, respectively.

Regarding `CNS(=O)(=O)c1cc(Nc2ncc(F)c(Nc3ccc(OCc4nc(C)no4)cc3)n2)ccc1C` [Compound I-260, 5-Fluoro-N2-[3-N-(methyl)aminosulfonyl-4-methylphenyl)-N4-[4-(3-methyl-1,2,4-oxadiazol-5-yl)methyleneoxyphenyl]-2,4-pyrimidinediamine], the IC50 in assay [1] was found to be 0.985 µM; in assay [2], 0.0948 µM.

With `CCN(CC)CCNS(=O)(=O)c1ccc(Nc2ncc(F)c(Nc3ccc(OCc4nc(C)no4)cc3)n2)cc1` [Compound I-263, N2-[4-(2-N,N-Diethylaminoethyl)aminosulfonylphenyl)-5-fluoro-N4-[4-(3-methyl-1,2,4-oxadiazol-5-yl)methyleneoxyphenyl]-2,4-pyrimidinediamine], the values for the IC50 in assay [1] and in assay [2] were 0.665 µM and 0.124 µM, respectively.
